The values below come from ChEMBL document CHEMBL1137809, “Antifungal activity of benzoic acid derivatives from Piper lanceaefolium” (2002).

One test concerns Candida albicans. The test is described as follows: Antifungal activity against Candida albicans after 24 hrs by broth dilution assay. It counts as functional. For orientation: Broth dilution looks for growth in wells or tubes with falling amounts of substance.
In a further test the test system is Cladosporium cucumerinum. In words: Antifungal activity against Cladosporium cucumerinum at 5 ug by bioautographic TLC test. It counts as functional, organism-based.

In general, MIC refers to the least concentration at which growth counts as inhibited. Low readings indicate inhibition by little substance, high ones a need for much substance.

In brackets after ≈: the same amount, converted by molar mass. Activity calls are given as the source filed them. The rule behind the calls is not given here.

Take `COC(=O)c1cc(O)c2c(c1)C(=O)CC(C)(C)O2`: the result in the test on Candida albicans was inactive. Regarding `CC(C)=CC(=O)c1cc(C(=O)O)ccc1O`, the result with Candida albicans and in the test with Cladosporium cucumerinum was inactive.

As for `COC(=O)c1cc(O)c(O)c(C(=O)C=C(C)C)c1` [LANCEAEFOLIC ACID METHYL ESTER], the MIC with Candida albicans stood at 100 µg/mL (≈ 400 µM).

`CC(C)=CC(=O)c1cc(C(=O)O)cc(O)c1O`: in the test on Candida albicans, the result was inactive. Regarding `CC1(C)CC(=O)c2cc(C(=O)O)cc(O)c2O1`, in the test on Candida albicans, the result was inactive.
